| Structure (SMILES) | melting point [°C] |
| --- | --- |
| CCCCCCCCCCNS(=O)(=O)c1ccc(OC)cc1 | 53 to 54.5 |
| COc1ccc(C2(C#N)CCC(=O)CC2)c2c1OCCO2 | 157 to 161 |
| Nc1ccc(CCC(=O)Nc2cnc3ccccc3c2)cc1[N+](=O)[O-] | 220 |
| CNC(=O)CCC(=O)c1c(O)cccc1OC | 125 |
| CSc1nc(Cl)c(C#N)s1 | 83 to 87 |
| O=C(C=Cc1cccc(NS(=O)(=O)/C=C/c2ccccc2)c1)NO | 171 |
| CCONC(=O)c1cc(NC(C)=C2C(=O)OC(=O)C(C(C)=O)=C2O)cc(C(=O)NOCC)c1 | 234 to 235 |
| COc1cccc2[nH]c3c(c12)CC(N(C)C)CC3 (centres undefined) | 185 to 189 |
| CC(=O)Nc1ccc(I)cc1C | 182 to 183 |
| CCCSc1ncc(CC(=O)O)n1Cc1ccccc1Cl | 68 to 71 |
| CC(C)CC1(C(CCN2C(=O)c3ccccc3C2=O)C(=O)NO)CCN(CCc2ccccc2)C1=O (centres undefined) | 102 to 105 |
| c1ccc2c(c1)CCN(Cc1nc3ccccc3[nH]1)C2 | 184 to 186 |
| Nc1cccc(C(=O)Nc2cccc3cc(Br)cnc23)c1 | 209 to 211 |
| CCOC(=O)C(CCCCCN1C(=O)c2ccccc2C1=O)(NC(C)=O)C(=O)OCC | 70 to 72 |
| CCOC(=O)CCc1cc2c(c(Br)c1Br)OCC2 | 42 to 43 |
| COc1c(Br)c(-c2ccc(C(C)(C)C)s2)cc2oc(=O)c(C)c(C)c12 | 170 |
| CC(=O)NC(c1ccc(Cl)cc1)(c1ccc2c(c1)c(-c1nc(-c3ccccc3)cs1)cc(=O)n2C)c1cncn1C (centres undefined) | 244 |
| CN(C)C(=O)c1nc2n(n1)-c1ccc(Cl)cc1C(c1ccccc1)=NC2 | 135 to 137 |
| NC(=O)CNC(=O)c1cc(-c2ccc(F)c3cc(Cc4cc(F)cc(Cl)c4)sc23)ccc1F | 148 to 150 |
| CCOC(=O)C(OS(N)(=O)=O)c1ccccc1 (centres undefined) | 91 to 93 |

| Structure (SMILES) | melting point [°C] |
| --- | --- |
| CC(C)(C)OC(=O)NCc1ccc(N2CC(C(=O)O)OC2=O)cc1 (centres undefined) | 166 |
| COc1cc(C)c(C(=O)c2c(Cl)cccc2Cl)cc1OC | 101 to 103 |
| CCCn1nc2c(O)nc3ccccc3c2c1CC(C)(C)O | 294 to 296 |
| Cc1cc(=S)c2c(O)cc(OC(C)C)cc2o1 | 119 to 120 |
| Cc1cccc(Nc2ncnc3ccc(N)cc23)c1 | 205 to 206 |
| Clc1ccc(C(Cl)Cl)cn1 | 60 |
| CCN(CC)CCn1nc2c3c(cccc31)C(=O)c1c(NCCNCCO)cccc1-2 | 129 to 132 |
| COC(=O)C1=C(C)NC(C)=C(C(=O)OCCCOc2ccc(CCOC3CCCCO3)cc2)C1c1cccc([N+](=O)[O-])c1 (centres undefined) | < 50 |
| OCc1ccc(-c2cccc(-c3cn([C@H]4CN5CCC4CC5)nn3)c2)s1 | 176 |
| C[C@H]1CN(c2c(F)cc3c(=O)c(C(=O)O)cn(CCF)c3c2Cl)C[C@H]1N (relative stereo) | 234 to 236 |
| CS(=O)(=O)N1CCN2C(=O)N(c3ccc(C#N)c4ccccc34)C(=O)C2C1 (centres undefined) | 207 to 216 |
| O=C(Nc1ccc(-n2nc(C(F)(F)F)cc2C2CC2)c(F)c1)c1ccc2nn[nH]c2c1 | 235 to 237 |
| COc1cc2c(cc1Nc1ncc(Cl)c(Nc3ccccc3OC)n1)CCN(C(=O)CN(C)C)CC2 | 76 to 99 |
| CC(c1nc2ccccc2c(=O)n1-c1ccc(F)cc1)N(Cc1cccnc1)C(=O)Cc1ccc(C(F)(F)F)cc1 (centres undefined) | 167 |
| O=C(CCc1cc(C2CCCCC2)c(O)c(C2CCCCC2)c1)NCCCCCCNC(=O)CCc1cc(C2CCCCC2)c(O)c(C2CCCCC2)c1 | 28 |
| CSC(=Nc1ccccc1)N(c1ccccc1)c1nc(C)cc(C)n1 | 101 to 103 |
| CCOC(=O)c1cc2c3cc4ccccc4cc3ccc2n1C | 141 to 144 |
| Cn1c(C(F)(F)F)nn(-c2cc(F)c(C#N)cc2F)c1=O | 74 |
| CCOc1nn(-c2ccc(C(F)(F)F)cn2)cc1CCCOc1cccc(OC)c1CC(=O)O | 150 to 151 |
| c1csc(CNCc2ccc(-c3cc4ncnc(Nc5ccc6[nH]ccc6c5)c4s3)cc2)c1 | 111 to 121 |

Continued, values first:

| melting point [°C] | Structure (SMILES) |
| --- | --- |
| 201 to 202 | Nc1scc2c1C(=O)c1ccc(Cl)cc1-2 |
| 230 to 232 | O=C1CCC(c2cc3c(s2)CC(NS(=O)(=O)c2ccccc2)CC3)=NN1 (centres undefined) |
| 191 to 192 | O=C(O)COc1cccc2c(CNS(=O)(=O)Cc3ccccc3)coc12 |
| 289 | O=C(c1ccc2nc[nH]c(=O)c2c1)c1ncc2ccccn12 |
| 159 | CC1CCCC(C)N1S(=O)(=O)N[C@@H](Cc1ccc(NC(=O)c2c(Cl)cccc2Cl)cc1)C(=O)O (some centres undefined) |
| 156 to 157 | CCOC(=O)C1=C(C)NC(COC(=O)c2ccccc2)=C(C(=O)OCC)C1c1ccccc1[N+](=O)[O-] (centres undefined) |
| 220 | O=c1[nH]c2c(n1-c1ccccc1)CCCC2 |
| 245 to 247 | CC(=O)Nc1ccc(-c2ccc3c(c2)C(C)(C)OC(=O)N3)cc1F |
| 134 to 136 | COC(=O)C(Oc1cc(OCc2ccccc2)ccc1C#N)c1ccccc1C (racemic) |
| 142 to 143 | Cc1c(NC(=O)c2ccc(OC[C@@H]3CCCO3)cc2)ccc2cc(CN[C@@H]3CCCC[C@H]3O)cnc12 |
| 242 to 244 | O=C(Cn1ccnc1)c1cc(Br)cc2ccccc12 |
| 53 | CC(S)C(=O)NCCS (centres undefined) |
| 158 to 160 | CC(=O)NCC1CN(c2ccc(N3CCC(n4ccnn4)C(F)C3)c(F)c2)C(=O)O1 (centres undefined) |
| 204 | COc1ccc(-c2c[nH]c(S)n2)cc1 |
| 206 to 207 | Cc1ccc(Cn2c3c(c4cc(OCc5ccccc5)ccc42)C(=O)C(=O)OC3)cc1 |
| 143 to 145 | COc1cccc2cc(C(=O)c3ccc(Cl)c(S(=O)(=O)Cl)c3)oc12 |
| 201 to 202 | CC(=O)Nc1c(C(=O)c2cc(Cl)ccn2)[nH]c2cc(Cl)ccc12 |
| 158 to 159 | CC(C)(C)OC(=O)NCCCCn1c(-c2ccccc2)nc2cnc3ccccc3c21 |
| 135 to 138 | CSc1nccc(-c2ccc(NC(=O)c3cc(F)cc(N4CCOCC4)c3)c3ccccc23)n1 |
| 230 to 231 | CN1CCC(NC(=O)C2c3ccccc3NC(=O)c3ccccc32)CC1 (centres undefined) |

| melting point [°C] | Structure (SMILES) |
| --- | --- |
| 63 to 64 | CC(C)(C)[Si](C)(C)OCCn1cc([N+](=O)[O-])cn1 |
| 135 to 137 | Cc1cc(C)c2cc(-c3ccccc3)c(=O)n(CCN(C)C)c2n1 |
| 224 to 225 | CCOC(=O)c1cn2c3c(cc(I)cc3c1=O)OC(c1ccccn1)C2 (centres undefined) |
| 121 to 123 | CCOC(=O)CCCCOc1ccc([N+](=O)[O-])c(C=C2C(=O)NC(=O)N2C)c1 |
| 119 | O=c1ssc(-c2cnccn2)c1CBr |
| 248 to 250 | CC(=C1SC(=O)NC1=O)c1ccc(OCCOc2c(-c3ccc(F)c(F)c3)n(C)c3ccccc3c2=O)cc1 |
| 213 to 215 | CC1CCc2c(cc(-c3ccccc3)n2-c2ccc(O)c(C(=O)O)c2)C1 (centres undefined) |
| 203 to 206 | COc1ccc2c3c(c(=O)oc2c1)CN(Cc1ccc(C(F)(F)F)cc1)CC3 |
| 113 to 115 | FC(F)Sc1nnc(-c2cnccn2)s1 |
| 165 to 168 | O=C(c1ccc(Br)cc1Cl)c1cccc2c1Nc1ncccc1CN2 |
| 160 to 163 | Cc1ccc(C(=O)NCC2CCN(C[C@H]3COc4ccc(Cl)cc4O3)CC2)c(N)n1 |
| 134 to 135 | CC(=O)SCC(Cc1ccccc1)C(=O)Nc1cc(C(=O)OCc2ccccc2)ccc1C (centres undefined) |
| 166 to 168 | c1ccc(-c2nnc3cc(C45CCC(CC4)C5)c(OCc4ccccn4)nn23)cc1 |
| 135 to 138 | CCOC(=O)CNc1ccc(NS(C)(=O)=O)cc1 |
| 199 to 200 | COc1ccc2c(n1)C1(CO2)C(=O)Nc2ccccc21 (centres undefined) |
| 127 to 130 | O=C(Nc1cc(C(F)(F)F)ccc1N1CCc2ccccc21)c1ccccc1F |
| 211 to 214 | CC(C)Nc1cccnc1N1CCN(C(=O)c2ccc(C(=O)O)cn2)CC1 |
| 140 | CCOC(=O)C(=CN(C)C)C(=O)c1cc2cc(F)c(F)cc2nc1Cl |
| 172 to 173 | CC#CCOc1cc(/C=C/C(=O)Nc2cc(Cl)ccc2C(=O)NC)ccc1OC |
| 96 to 100 | CCOC(=O)Cc1c([N+](=O)[O-])cc(O)c2ccccc12 |

| melting point [°C] | Structure (SMILES) |
| --- | --- |
| 50 to 55 | [N-]=[N+]=NCc1cc(Cl)c(C(=O)c2ccc(Cl)cc2)c(Cl)c1 |
| 202 to 210 | N#CC1C(=O)NC(=O)C(C#N)C12CCCCC2 (centres undefined) |
| 123 | Cc1nc(Nc2ccc(F)cc2)nc(Br)c1C |
| 110 | CCCCN(CCCC)CCCOc1ccc(S(=O)(=O)c2ncsc2-c2ccccc2)cc1 |
| 154 to 155 | O=c1c(Cl)c(SCc2ccc(Cl)cc2)cnn1-c1ccccc1 |
| 216 to 217 | CCC(C)C(C)C(=O)Nc1ccc2ncnc(NC=C(C(=O)OC)C(=O)OC)c2c1 (centres undefined) |
| 198 | CCOC(=O)C1=C(COCCNC(N)=S)NC(C)=C(C(=O)OC)C1c1cccc(Cl)c1Cl (centres undefined) |
| 36 to 38 | O=Cc1cc2c(cc1[N+](=O)[O-])OC(F)(F)O2 |
| 104 to 106 | COCc1nc2c(C(F)(F)F)cccc2c(=O)o1 |
| 153 to 155 | NCCCCC1Cc2ccc(C3=NNC(=O)CC3)cc2C1 (centres undefined) |
| 174 to 176 | OCc1cc2cnc(Cl)nc2n1C1CCCC1 |
| > 250 | CC1CCN(c2ccc(-c3nc(C(=O)Nc4nccs4)c(-c4ccc(Cl)cc4)[nH]3)cc2)CC1 |
| 196 to 197 | CC(N=c1[nH]c(-c2ccccc2)c(-c2ccnc(Nc3ccccc3)n2)s1)N(C)C (centres undefined) |
| 101 to 103 | O=C(O)Cc1cccc(C(=O)c2ccccc2)c1 |
| 56 to 58 | O=C(CNC(=O)c1cc([N+](=O)[O-])ccc1F)OCc1ccccc1 |
| 258 to 260 | CC(=O)C1=Nc2cc3c(c(C)c2=C1C)N=c1ccccc1=3 |
| 103 to 104 | O=C(O)CCc1cnoc1-c1cc(Cl)ccc1Cl |
| 154 to 157 | COc1ccc(C2=NN(C(C)CCC(=O)Nc3ccc(C4=NNC(=O)CC4C)cc3)C(=O)C3CC=CCC23)cc1OC (centres undefined) |
| 116 to 118 | CS(=O)(=O)N1CCC(C(=O)N(CCCN2CCC(Cc3ccccc3)CC2)c2ccccc2)CC1 |

From a melting point compilation (Tetko et al.; mined from patent text by program, amines drawn as free bases though some values may be those of a salt)
